# From patent publication US8772493B2, “Compounds having auditory protective effect” (Ajou University Industry-Academic Cooperation Foundation, priority 2010, dated 2014)
# Key:
# [1] = system: HEI-OC1; test: MTT assay in auditory cells HEI-OC1; type: cell-based; conditions: for cytotoxicity in auditory hair cells (MTT): HEI-OC1, compound alone, up to elevated dose of 200
# Description: (§1) HEI-OC1 and UB-OC1 as auditory cells were subjected to MTT assay. Auditory cell lines were seeded on a 96-well plate in the ratio of 2×10^3 cells/well, and then cultured in an incubator under the condition of 37° C., 5% CO2 for 2 days. The compounds of Examples 1 and 2 were used at various concentrations with operating 5 runs for each sample, and then cultured in the incubator for 16 hours. The plate was treated with 1 mg/ml MTT solution per well, and then cultured in the incubator for 4 hours. Then, 100 μl DMSO per well was used to dissolve formazan, and the optical density of formazan as dissolved was measured at 540 nm.
# [2] = system: UB-OC1; test: MTT assay in auditory cells UB-OC1; type: cell-based
# Description: as §1
# [3] = system: HEI-OC1; test: TUNEL assay; type: cell-based
# Description: 3×10^5 cells were seeded on the 6-well, incubated, then starved for 24 hours, and treated with the drug of the present invention by conditions, and then incubated for 24 hours. The cells were fixed with addition of 4% paraformaldehyde at normal temperature for 30 minutes, then washed two times with PBS, and treated with the permeablilization solution comprising 0.1% Triton X-100 at normal temperature for 10 minutes. The cells were washed again two times with PBS, and after adding terminal deoxynucleotidyl transferase (TDT) and nucleotide mixture, incubated for one hour with blocking out the light at 37° C. After washing two times with PBS, the apoptosis of cells was examined under fluorescence microscope. For control staining of cells without apoptosis, 4,6-diamino-2-phenylindole (DAPI, Sigma) solution was used. The stained cells were analyzed using a fluorescence microscope (Carl Zeiss, Oberkochen, Germany). TUNEL-positive cells were manually counted under a 200× magnification field in triplicate.
# [4] = system: auditory cells; test: FACScan with Annexin-V and PI double staining; type: cell-based
# Description: The degree of apoptosis was analyzed with Annexin V-FITC Apoptosis Detection kit I (BD Biosciences, San Diego, Calif.). 3×10^5 cells were seeded on 60 mm dish, incubated, then starved for 24 hours, and treated with the compounds of Examples 1 and 2 by conditions and incubated for 24 hours. After removing the culture solution, the cells were washed two times with PBS, and suspended in the binding buffer in the ratio of 1×10^6 cells/ml. 100 μl of this solution was transferred to 5 ml tube, and after addition of 5 μl of Annexin V-FITC to the tube, well mixed together, and then reacted for about 15 minutes in the dark place. Then, 400 μl of the binding buffer was added, and the cells were counted until 10,000 cells were on Becton Dicki nson FACSscan (Lysis II Ver. 1.0). The degree of apoptosis was measured depending on the expression of Annexin V-FITC from the result of FACScan flowcytometry. In addition, the degree of apoptosis was also measured under fluorescence microscope.
# [5] = system: HEI-OC1 cells; test: Cell cycle analysis using FACScan; type: cell-based
# Description: The cells were treated with trypsin, washed with PBS, and then stained with a dye (5 mg/ml propidium iodide, 20 mg/ml RNase A) in a dark room at normal temperature for 15 minutes. The stained cells were analyzed with a flow cytometry cell sorter (Becton Dickinson).
# [6] = system: HEI-OC1; test: Measurement of mitochondrial membrane potential (MMP), JC-1; type: cell-based
# Description: The mitochondrial membrane potential (MMP) was measured using 5,5V,6,6V-tetrachloro-1,1V,3,3V-tetraethylbenzimidazolcarbocyanine iodide (JC-1; Molecular Probes) as a lipophilic cationic probe.
# JC-1 is a fluorescent dye which is accumulated by mitochondria in its inside. If the function of mitochondria is normal, MMP is high and mitochondria are predominantly red. Then, if mitochondria are damaged, MMP is reduced and mitochondria are changed into green.
# [7] = system: JNK, p38, cleaved caspase 3, PARP in HEI-OC1; test: Western blotting of apoptosis-related proteins; type: cell-based
# [8] = system: zebrafish (Danio rerio) embryo; test: Drug toxicity in zebrafish and effect on zebrafish embryos; type: in vivo
# Description: To identify the drug toxicity of the compound of the present invention, zebrafish (Danio rerio) embryo was treated with the compound of Example 1 by concentrations (0, 50, 100, 150, 200, 400 μM), and then cultured in the incubator at 28.5° C. for one hour, washed three times with fresh 0.3× Danieu's Solution, and then cultured at 28.5° C. for 3 hours. The embryotoxicity was identified by examining the hatching rate, organogenesis, development, etc. of embryo under a microscope (AXIO vert 200, Carl zeiss, Gottingen, Germany), and the survival rate of embryo was determined depending on whether the cardiac contractility of embryo is present or absent.
# Further, to determine the general toxicity of the compound of Example 1, the influence of the compound of Example 1 on embryos of zebrafish were tested. One female and two male sexually mature zebrafish were maintained for a 14 h light/10 h dark photoperiod. Several rectangular mesh wire boxes were placed at the bottom of the aquaria to collect the eggs the following morning. The eggs were pre-treated with the compound of Example 1 (100 μg/ml) for 1 hr, after then the eggs were washed twice with sea salt 1×. […] After three washes with sea salt 1×, the zebrafish eggs were observed under a microscope.
# [9] = system: zebrafish neuromast; test: Observation of zebrafish neuromast using fluorescent microscope (Yo-Pro-1); type: in vivo, Danio rerio
# Description: When embryo of zebrafish (Danio rerio) wild type is on the 4th day, the drugs (compounds of Examples 1 and 2) were added to 2 ml of embryo media in 6 well, and then 5 embryos were added to each group and reacted with the drug in the incubator maintained at 28.5° C. for one hour. After reaction, embryos were washed three times with embryo media, and then placed in clean embryo media for 3 hours. After 3 hours, […] of Yo-Pro-1 (molecular probes, Oregon U.S.A) was added to embryo media, and then reacted for one hour in the place with blocking the light. After reaction, embryos were washed again three times with clean embryo media, and anesthetized with 8 μg/ml of MS222 (3-aminobenzoic aid ethyl ester, methanesulfonate salt, Sigma Chemical CO, St Louis, U.S.A) anesthetic.
# [10] = system: zebrafish neuromast; test: Scanning and transmission electron microscopy of zebrafish neuromast; type: in vivo, Danio rerio; conditions: 50 μM cisplatin
# Excerpt: They were dried with a drier, treated with an evaporator (MED010; Baltec, Hudson, N.H.), and then observed using a scanning microscope (JSM-6700F JEOL, Tokyo, Japan).
# Larvae were cut in the direction from head to tail, sliced to a thickness of […], and then stained with 1% toluidine blue. They were divided into ultrathin sections (90 nm) using Ultracut S microtome (Leica, Wetzlar, Germany), mounted on 200-mesh Athene thin bar-grids, treated with uranyl acetate and lead citrate, and then observed using s transmission electron microscope (EM 902A Carl Zeiss).
# [11] = system: HEI-OC1 cells; test: Measurement of intracellular ROS generation (DCFDA); type: cell-based
# Description: Intracellular generation of ROS was quantified using 5-(and 6)-carboxyl-20,70-dichlorodihydro fluorescein diacetate (DCFDA; Molecular Probes, Eugene, Oreg., USA). […] ROS generation at various time points was checked and the amount of ROS generation was the highest at 16 h. Therefore, 16 h as the time point for ROS detection was chosen for subsequent experiments. Cells were incubated in the dark with 10 μM DCFDA in serum-free medium for 10 min at 33° C. The oxidative burst (hydrogen peroxide, H2O2) was detected using a FACScan flow cytometer (Becton Dickinson, Franklin Lakes, N.J., USA) with excitation and emission settings at 488 and 530 nm, respectively.
# [12] = system: neuromasts of zebrafish; type: in vivo; conditions: 4 dpf larvae, 50 μM cisplatin co-treatment with compound
# Description: To detect the apoptotic cells in the embryos, TUNEL assay was employed. […] Thereafter, the larvae were washed with PBS and fixed in 4% paraformaldehyde with 0.1% Tween 20 at room temperature for 24 h. The fixed embryos were then dehydrated, rehydrated, and treated with 60 μg/ml protease kinase (Invitrogen, USA) for 10 min. After the protease kinase treatment, the embryos were fixed in 4% paraformaldehyde in PBS with 0.1% Tween 20 again. The TUNEL staining was achieved by using an in situ apoptosis detection kit. The fixed embryos were immersed in the permeabilization buffer for 30 min on ice. The apoptotic cells were labeled by staining the embryos in a mixture of Terminal Deoxynucleotidyl Transferase (TdT) enzyme and labeling safe buffer containing Fluorescein labeled-2′-Deoxyuridine, 5′-Triphosphate, FITC-dUTP in the ratio of 1 to 9. The embryos were then incubated in a 37° C. humidified chamber for 120 min. The embryos were finally washed thoroughly by PBS in 0.1% Tween 20. The apoptotic signals were captured by a fluorescence microscope (Carl Zeiss, Oberkochen, Germany).
# [13] = system: rat hearing; test: Measurement of brainstem evoked potential hearing in rat; type: in vivo; conditions: cisplatin in combination with compound (2 mM inside eardrum)
# Description: Rats were anesthetized with a mixed anesthetic of 1:1 zoletil and rompun, and then subjected to the examination of brainstem evoked potential hearing. […] The stimulus sound was measured by lowering 13 times/sec of the alternating click sound from the strength of 75 dB HL at the ratio of 5 dB per step. The hearing threshold was defined to be a strength at which the normal wave form I is assumed on the basis of the wave form I, the frequency filter of click sound was controlled to 100-3000 Hz, and the number of total stimulus sound was 1,024.
# The drug was administered inside eardrum of rats with a 26 gage needle. The brainstem evoked potential hearing was measured a total of three times on days 1, 3 and 7 after administration of the drug.
# [14] = system: rat hearing; test: Auditory brainstem responses after transtympanic injection in rat; type: in vivo, Sprague-Dawley rats; conditions: rat ears pretreated with transtympanic compound (2 mM), then cisplatin
# Description: Sixteen female Sprague-Dawley rats (Samtaco, Osan, Korea) weighing between 180 and 220 g were used. After transportation, the animals were maintained in the central animal laboratory for at least 1 week. The animals were housed in independently ventilated cages and were allowed free access to water and food. The temperature was maintained at 21±1° C., and the lights were turned on from 8:00 AM to 8:00 PM. Rats with an inner ear infection were not used. This study was approved by the Committee for Ethics in Animal Experiments of the Ajou University School of Medicine.
# Animals were sedated using an intraperitoneal (IP) injection of 3.125 mg/kg xylazine, 3.125 mg/kg zolazepam and 11.5 mg/kg xylazine. The rats were divided into two groups after baseline auditory brainstem response (ABR) testing was performed. […] The control group (four rats, eight ears) received transtympanic saline in both ears followed by IP saline (16 mL/kg by IP infusion). […] Posttreatment ABR was obtained on day 14.
# Preyer's reflex and otoscopy were used to confirm that the middle ears were normal. The rats were anaesthetized using an IP injection of 3.125 mg/kg zolazepam and 11.5 mg/kg xylazine. Subdermal sterile stainless steel electrode needles were attached, with the active lead at the vertex that referred to a second electrode located at the tip of the nose. The grounding electrode was placed on the front paw muscles. […]
# [15] = system: rat cochlea; test: Tissue TUNEL assay of rat cochlea; type: in vivo; conditions: cisplatin only
# Description: Animals were sedated using an intraperitoneal (IP) injection of 3.125 mg/kg xylazine, 3.125 mg/kg zolazepam and […]. The rats were divided into two groups after baseline auditory brainstem response (ABR) testing was performed. […] The control group (four rats, eight ears) received transtympanic saline in both ears followed by IP saline (16 mL/kg by IP infusion). The compound of Example 2 only group (four rats, eight ears) received transtympanic the compound of Example 2 in both ears followed by IP saline (16 mL/kg by IP infusion). On days 2 to 5, daily transtympanic injections of either 2 mM the compound of Example 2 or saline were continued. Posttreatment ABR was obtained on day 14.
# After fixation by intralabyrinthine perfusion of 4% paraformaldehyde (pH 7.4), the cochleae were removed and then were incubated in the same fixative overnight. Decalcification was performed in ethylenediamine tetraacetic acid solution (EDTA) (10% in PBS) for 3-4 weeks. Subsequently, the tissues were embedded in paraffin.
# Organ of Corti explants were each fixed for 15 min in 3.7% (v/v) formaldehyde in PBS at room temperature. Each explant was rinsed with PBS and incubated in proteinase K diluted from the TUNEL kit for 15 min at room temperature. […] Each explant was washed twice with PBS and examined using a fluorescence microscope.
smiles,measurement,setting,value
"NC1(c2ccc(F)cc2)C(=O)Nc2ccccc2C1=O (centres unmarked) [Example 1, 3-amino-3-(4-fluorophenyl)quinolin-2,4(1H,3H)-dione]",cisplatin-induced apoptosis of auditory hair cells (MTT),"[1]; HEI-OC1, 50 of cisplatin plus compound, as the dose of the compound increases",statistically significantly inhibited
same,cytotoxicity in auditory hair cells (MTT),[1],substantially no cytotoxicity
same,cisplatin-induced apoptosis of auditory hair cells (MTT),"[2]; UB-OC1, 50 of cisplatin plus compound, as the dose of the compound increases",statistically significantly inhibited
same,cytotoxicity in auditory hair cells (MTT),"[2]; UB-OC1, compound alone, up to elevated dose of 200",substantially no cytotoxicity
same,"apoptosis of auditory cells (TUNEL), cisplatin and compound at the same time","[3]; cisplatin (50 μM with Example 1, 20 μM with Example 2) and compound administered at the same time",inhibited
same,apoptosis (TUNEL positive cells) on administration of compound alone,[3],did not cause apoptosis
same,effect of 100 μM compared to 50 μM of compound (TUNEL),"[3]; with cisplatin, dose-dependent manner",better effect
same,"apoptosis increased by cisplatin (annexin/PI FACS), simultaneous administration of compound",[4]; 50 μM of cisplatin plus compound,statistically significantly inhibited
same,effect of 100 μM compared to 50 μM of compound (annexin/PI FACS),"[4]; with 50 μM cisplatin, dose-dependent manner",better effect
same,cisplatin-induced increase in sub G1,[5]; cisplatin plus compound,effectively reduced
same,"cisplatin-induced mitochondria damage (loss of MMP, green fluorescence)",[6]; cisplatin plus compound,inhibited
same,"cisplatin-induced JNK, p38, cleaved caspase 3, PARP",[7]; cisplatin plus compound,effectively inhibited
same,drug toxicity for 7 days after incubation of zebrafish,"[8]; 50, 100, 150, 200, 400 μM",did not show the drug toxicity
same,"zebrafish embryos, damage caused by cisplatin","[8]; cisplatin (50 μM) plus compound, 24 h",rescued
same,embryotoxicity in zebrafish model,[8]; even at the concentration of 400 μM,did not show the drug toxicity
same,neuromast including auditory hair cells disappeared by cisplatin,"[9]; cisplatin plus compound, dose-dependent",effectively protected
same,"damage of kinocilium and stereocilia caused by cisplatin (SEM, TEM)",[10]; combined use of compound,inhibited the damage of kinocilium and stereocilia
same,cisplatin-induced intracellular ROS generation,"[11]; 50 μM cisplatin plus compound (100 μg/ml), 16 h",significantly inhibited
same,TUNEL positive cells in zebrafish larvae compared to cisplatin alone,[12],reduced TUNEL positive cells
same,hearing threshold,[13],25˜35 dB
"NC1(c2ccc(F)cc2)C(=O)Nc2cccc(F)c2C1=O (centres unmarked) [Example 2, 3-amino-5-fluoro-3-(4-fluorophenyl)quinolin-2,4(1H,3H)-dione]",cytotoxicity in auditory hair cells (MTT),[1],substantially same result
same,apoptosis (TUNEL positive cells) on administration of compound alone,[3],did not cause apoptosis
same,average click-evoked ABR threshold shift,[14],38.5±11.3 dB
same,"click-evoked ABR threshold shift, range",[14],27-49 dB
"N.N.[Cl][Pt][Cl] [cisplatin, reference compound]",auditory hair cells killed by cisplatin (MTT),"[1]; HEI-OC1, 50 of cisplatin",about 50%
same,auditory hair cells killed by cisplatin (MTT),"[2]; UB-OC1, 50 of cisplatin",about 50%
same,apoptosis (annexin/PI FACS),[4]; 50 μM of cisplatin,increased
same,sub G1 related to apoptosis,[5]; cisplatin alone,increase
same,mitochondrial membrane potential (JC-1 fluorescence),[6]; cisplatin alone,changed into green fluorescence
same,"JNK, p38, cleaved caspase 3, PARP",[7]; cisplatin alone,increased
same,reduction of neuromast,"[9]; 50 μM cisplatin, zebrafish 4th day",≥ 70%
same,neuromast,"[9]; 100 μM cisplatin, zebrafish 4th day",substantially all of neuromast was disappeared
same,"kinocilium of auditory cells of neuromast (SEM, TEM)",[10],markedly damaged or mostly disappeared or fused
same,generation of intracellular ROS,"[11]; cisplatin, time-dependent",significantly increased
same,TUNEL positive cells in cochlea versus control group,[15],more numerous
